Laboratory results taken from ChEMBL document CHEMBL1201862, “PubChem BioAssay data set” (2004).
Calls of active or inactive are those of the source.

What was measured:
cells = format: functional
[1] = HepG2 cell cytotoxicity, dose response, cytotoxicity control for non-replicating M. tuberculosis project (AID 489018); format: functional; conditions: Mycobacterium tuberculosis
Streptokinase A = target: T1, Streptokinase A (Streptococcus pyogenes serotype M1, UniProt P10520); assay: viability-normalized secreted streptokinase activity reduction – plasminogen activation absorbance, OD405, dose response (AID 1914); format: functional, Streptococcus pyogenes M1 GAS;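 note: secreted streptokinase activity via plasminogen activation per viability signal from cell pellet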
T1 sequence (P10520 whole entry): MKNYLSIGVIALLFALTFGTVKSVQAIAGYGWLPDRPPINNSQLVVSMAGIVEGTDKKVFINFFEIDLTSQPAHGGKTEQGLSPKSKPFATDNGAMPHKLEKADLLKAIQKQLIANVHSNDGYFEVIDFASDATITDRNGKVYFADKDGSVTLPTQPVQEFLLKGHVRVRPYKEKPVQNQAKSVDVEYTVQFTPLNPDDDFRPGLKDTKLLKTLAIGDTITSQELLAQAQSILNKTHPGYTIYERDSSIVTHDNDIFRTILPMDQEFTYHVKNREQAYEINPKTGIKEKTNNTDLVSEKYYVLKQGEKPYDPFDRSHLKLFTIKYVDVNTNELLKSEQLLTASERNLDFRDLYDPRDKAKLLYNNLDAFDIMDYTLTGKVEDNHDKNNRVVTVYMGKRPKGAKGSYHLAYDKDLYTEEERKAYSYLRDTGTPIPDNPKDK

[2] = Vero E6 cell cytotoxicity, dose response, cytotoxicity control for non-replicating M. tuberculosis project, secondary assay (AID 492998); format: functional, VeroE6; conditions: Vero C1008
[3] = THP-1 cell cytotoxicity, dose response, cytotoxicity control for non-replicating M. tuberculosis project (AID 489025); format: functional
Streptococcus = assay: GAS UMAA2166 growth inhibition – luminescence, BacTiterGlo, counter-screen for streptokinase expression inhibitor project, dose response (AID 1915); format: functional, organism-based;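 note: potency for reduction of bacterial viability or growth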
[4] = tested on: Streptococcus sp. 'group A'; assay: Streptococcus pyogenes SK(-)GAS viability under kanamycin – luminescence, BacTiterGlo, confirmation, counter-screen for streptokinase expression inhibitor project, dose response (AID 1900); format: functional, organism-based
[5] = microbe, parasite or virus in culture; format: functional; conditions: Mycobacterium tuberculosis
[6] = Luminescence Cell-Based Dose Retest to Confirm Inhibitors of Cancer Stem Cells. [Related pubchem assays (depositor defined):AID2717, AID2721]; format: functional; conditions: Homo sapiens
[7] = A Cell Based Secondary Assay To Explore Cytotoxicity of Compounds that Sensitize Mycobacterium Tuberculosis to Beta-Lactam Antibiotics.; format: functional
Cytochrome P450 2C9 = Cytochrome P450 2C9 (Homo sapiens, UniProt P11712)
Chain of Cytochrome P450 2C9 (P11712 whole entry): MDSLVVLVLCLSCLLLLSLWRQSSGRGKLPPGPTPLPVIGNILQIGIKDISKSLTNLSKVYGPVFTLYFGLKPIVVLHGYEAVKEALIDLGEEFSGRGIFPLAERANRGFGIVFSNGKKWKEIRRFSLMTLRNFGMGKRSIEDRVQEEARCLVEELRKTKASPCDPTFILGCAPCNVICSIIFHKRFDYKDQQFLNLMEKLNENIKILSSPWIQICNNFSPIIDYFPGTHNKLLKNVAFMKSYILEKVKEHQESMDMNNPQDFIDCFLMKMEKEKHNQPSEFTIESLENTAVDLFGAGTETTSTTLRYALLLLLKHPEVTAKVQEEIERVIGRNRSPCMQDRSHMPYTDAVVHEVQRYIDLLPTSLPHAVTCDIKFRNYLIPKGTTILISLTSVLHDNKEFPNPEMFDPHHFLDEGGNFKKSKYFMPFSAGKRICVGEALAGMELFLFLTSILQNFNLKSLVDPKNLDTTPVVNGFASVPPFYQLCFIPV

[8] = Luminescence-based cell-based high throughput dose response assay to identify activators of the DAF-12 from the parasite S. stercoralis (ssDAF-12).; format: functional
[9] = target: T2, Calpain-2 catalytic subunit (Sus scrofa, UniProt P43367); assay: m-calpain protease blockers, concentration series – biochemical, fluorogenic peptide substrate, dose response (AID 1420); format: functional
T2 sequence (P43367 whole entry): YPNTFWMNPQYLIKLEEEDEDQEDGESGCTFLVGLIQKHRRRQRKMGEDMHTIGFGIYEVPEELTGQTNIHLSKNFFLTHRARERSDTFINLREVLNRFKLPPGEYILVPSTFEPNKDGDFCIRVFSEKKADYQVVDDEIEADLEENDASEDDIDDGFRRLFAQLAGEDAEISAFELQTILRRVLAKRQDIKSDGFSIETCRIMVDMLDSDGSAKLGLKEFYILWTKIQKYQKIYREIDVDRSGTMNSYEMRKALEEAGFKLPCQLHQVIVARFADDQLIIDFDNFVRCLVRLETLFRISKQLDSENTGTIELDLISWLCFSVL

[10] = DRD fibroblast viability loss – cell-based, non-viral oncogenic, luminescence, dose response (AID 1934); format: functional; conditions: Homo sapiens
BJ [11] = assay: BJ-TERT-LT-ST fibroblast viability loss – cell-based, RAS-independent, luminescence, dose response (AID 1935); format: functional; conditions: Homo sapiens;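 note: BJ fibroblasts immortalized with TERT plus LT and ST oncogenes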
BJ [12] = assay: BJ-TERT fibroblast viability loss – cell-based, RAS-independent, luminescence, dose response (AID 1933); format: functional; conditions: Homo sapiens
BJ [13] = assay: cells; format: functional, cell-based; conditions: Homo sapiens
Cytochrome P450 2C19 = Cytochrome P450 2C19 (Homo sapiens, UniProt P33261); assay: Cytochrome panel assay with activity outcomes. Panel member name: p450-cyp2c19 Compounds with AC50 equal or less than 10 uM are considered active; format: functional
Chain of Cytochrome P450 2C19 (P33261 whole entry): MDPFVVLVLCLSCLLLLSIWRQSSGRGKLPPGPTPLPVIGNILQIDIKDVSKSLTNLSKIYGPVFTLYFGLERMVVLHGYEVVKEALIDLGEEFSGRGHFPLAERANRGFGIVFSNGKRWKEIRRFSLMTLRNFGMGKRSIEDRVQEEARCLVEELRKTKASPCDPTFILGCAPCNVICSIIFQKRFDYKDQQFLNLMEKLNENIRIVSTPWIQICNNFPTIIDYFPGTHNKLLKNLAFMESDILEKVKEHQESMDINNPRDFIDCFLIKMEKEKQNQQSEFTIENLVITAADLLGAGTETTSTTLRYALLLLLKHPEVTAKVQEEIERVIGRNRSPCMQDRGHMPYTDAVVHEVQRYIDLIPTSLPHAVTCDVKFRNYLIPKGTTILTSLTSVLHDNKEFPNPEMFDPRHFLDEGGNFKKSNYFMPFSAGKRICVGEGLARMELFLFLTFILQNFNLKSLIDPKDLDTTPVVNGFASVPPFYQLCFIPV

Large T antigen = Large T antigen (Simian virus 40, UniProt P03070); format: functional, Betapolyomavirus macacae;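 note: Confirmatory-stage PubChem screen for compounds that inhibit SV40 T antigen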
Chain of Large T antigen (P03070 whole entry): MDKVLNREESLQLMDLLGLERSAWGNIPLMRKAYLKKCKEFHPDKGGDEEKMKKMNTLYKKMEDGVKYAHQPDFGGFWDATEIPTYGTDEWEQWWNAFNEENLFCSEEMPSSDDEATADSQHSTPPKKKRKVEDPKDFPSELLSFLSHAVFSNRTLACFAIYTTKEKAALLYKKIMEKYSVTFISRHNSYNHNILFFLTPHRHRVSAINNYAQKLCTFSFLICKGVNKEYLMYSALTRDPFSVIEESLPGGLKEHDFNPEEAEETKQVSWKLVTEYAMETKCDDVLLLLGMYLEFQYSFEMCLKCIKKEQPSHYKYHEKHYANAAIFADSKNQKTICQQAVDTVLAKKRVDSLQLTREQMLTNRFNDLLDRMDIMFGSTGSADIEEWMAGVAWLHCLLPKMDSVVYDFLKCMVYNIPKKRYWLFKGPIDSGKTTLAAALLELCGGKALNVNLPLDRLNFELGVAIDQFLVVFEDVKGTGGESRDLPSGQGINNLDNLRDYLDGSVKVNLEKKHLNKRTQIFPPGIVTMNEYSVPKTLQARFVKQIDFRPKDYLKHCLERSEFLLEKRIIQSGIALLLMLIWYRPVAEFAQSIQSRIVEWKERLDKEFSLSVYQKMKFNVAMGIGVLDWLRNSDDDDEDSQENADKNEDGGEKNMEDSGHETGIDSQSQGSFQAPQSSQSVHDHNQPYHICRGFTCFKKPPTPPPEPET

Cytochrome P450 1A2 = target: T3, Cytochrome P450 1A2 (Homo sapiens, UniProt P05177);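 note: PubChem cytochrome P450 panel assay, CYP1A2 panel member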
T3 sequence (P05177 whole entry): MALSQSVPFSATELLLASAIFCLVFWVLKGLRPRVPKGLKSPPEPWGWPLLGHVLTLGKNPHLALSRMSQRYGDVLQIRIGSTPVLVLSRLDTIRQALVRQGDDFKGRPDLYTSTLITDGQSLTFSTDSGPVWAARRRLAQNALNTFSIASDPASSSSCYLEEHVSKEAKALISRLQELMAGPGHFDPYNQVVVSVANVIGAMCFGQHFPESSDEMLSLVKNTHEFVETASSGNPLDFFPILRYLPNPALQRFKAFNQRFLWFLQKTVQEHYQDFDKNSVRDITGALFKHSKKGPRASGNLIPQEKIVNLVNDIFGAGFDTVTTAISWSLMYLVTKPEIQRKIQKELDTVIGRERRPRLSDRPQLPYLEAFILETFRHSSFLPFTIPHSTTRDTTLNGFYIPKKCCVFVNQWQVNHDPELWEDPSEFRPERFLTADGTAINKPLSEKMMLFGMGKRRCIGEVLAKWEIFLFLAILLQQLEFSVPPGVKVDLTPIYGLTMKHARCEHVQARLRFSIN

[14] = target: T4, DNA repair and recombination protein RAD54-like (Homo sapiens, UniProt Q92698); assay: RAD54 Holliday junction migration blockers – biochemical, fluorescence, cherry-picked samples, dose series, confirmation (AID 651657); format: functional
T4 sequence (Q92698 whole entry): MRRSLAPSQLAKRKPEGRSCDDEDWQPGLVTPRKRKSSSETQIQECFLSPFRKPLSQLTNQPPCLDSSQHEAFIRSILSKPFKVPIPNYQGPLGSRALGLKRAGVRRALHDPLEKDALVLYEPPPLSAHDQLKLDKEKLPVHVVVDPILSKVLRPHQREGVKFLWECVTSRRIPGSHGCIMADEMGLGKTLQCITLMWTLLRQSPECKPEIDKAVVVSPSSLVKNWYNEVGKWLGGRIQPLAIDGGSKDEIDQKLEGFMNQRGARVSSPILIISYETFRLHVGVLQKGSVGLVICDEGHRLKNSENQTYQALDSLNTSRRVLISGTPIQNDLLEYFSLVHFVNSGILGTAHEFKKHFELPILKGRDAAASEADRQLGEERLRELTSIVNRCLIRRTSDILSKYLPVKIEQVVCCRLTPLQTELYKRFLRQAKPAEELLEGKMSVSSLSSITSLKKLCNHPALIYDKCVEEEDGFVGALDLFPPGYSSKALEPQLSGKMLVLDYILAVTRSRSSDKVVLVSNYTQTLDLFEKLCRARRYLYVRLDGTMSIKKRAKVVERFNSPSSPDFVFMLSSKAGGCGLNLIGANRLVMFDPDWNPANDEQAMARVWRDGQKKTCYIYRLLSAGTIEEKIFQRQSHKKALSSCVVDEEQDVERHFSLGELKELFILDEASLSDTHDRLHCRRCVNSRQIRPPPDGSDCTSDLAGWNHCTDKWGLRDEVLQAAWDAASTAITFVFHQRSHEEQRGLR

[15] = target: T5, DNA repair protein RAD52 homolog (Homo sapiens, UniProt P43351); format: functional, biochemical
T5 sequence (P43351 whole entry): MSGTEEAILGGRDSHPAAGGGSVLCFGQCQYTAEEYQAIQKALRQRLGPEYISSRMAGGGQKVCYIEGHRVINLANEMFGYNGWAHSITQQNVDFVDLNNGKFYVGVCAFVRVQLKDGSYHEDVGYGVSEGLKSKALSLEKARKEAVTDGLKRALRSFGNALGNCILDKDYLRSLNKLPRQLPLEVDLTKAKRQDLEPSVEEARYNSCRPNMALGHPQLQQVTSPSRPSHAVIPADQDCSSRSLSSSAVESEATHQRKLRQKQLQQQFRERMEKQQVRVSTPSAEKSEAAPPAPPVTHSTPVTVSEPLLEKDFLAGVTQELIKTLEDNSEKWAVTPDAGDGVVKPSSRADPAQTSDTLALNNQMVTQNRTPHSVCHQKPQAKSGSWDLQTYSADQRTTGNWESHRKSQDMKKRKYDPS

Protein skinhead-1 = target: T6, Protein skinhead-1 (Caenorhabditis elegans, UniProt P34707); format: functional
T6 sequence (P34707 whole entry): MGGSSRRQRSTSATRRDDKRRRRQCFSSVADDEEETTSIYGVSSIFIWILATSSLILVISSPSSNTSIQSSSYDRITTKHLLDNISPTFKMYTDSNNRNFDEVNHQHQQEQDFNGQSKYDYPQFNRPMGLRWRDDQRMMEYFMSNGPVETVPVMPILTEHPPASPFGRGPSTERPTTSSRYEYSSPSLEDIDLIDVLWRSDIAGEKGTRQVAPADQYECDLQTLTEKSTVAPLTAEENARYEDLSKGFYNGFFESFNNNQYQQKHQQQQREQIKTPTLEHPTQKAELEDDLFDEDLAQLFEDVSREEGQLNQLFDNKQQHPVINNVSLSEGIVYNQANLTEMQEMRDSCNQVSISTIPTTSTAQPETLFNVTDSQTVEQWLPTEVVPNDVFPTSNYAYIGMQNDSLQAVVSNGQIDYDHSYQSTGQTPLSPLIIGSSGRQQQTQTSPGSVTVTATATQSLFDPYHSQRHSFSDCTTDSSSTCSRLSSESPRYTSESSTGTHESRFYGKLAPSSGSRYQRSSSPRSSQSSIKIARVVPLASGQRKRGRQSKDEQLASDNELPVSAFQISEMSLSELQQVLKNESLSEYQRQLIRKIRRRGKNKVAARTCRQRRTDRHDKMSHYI

[16] = blockers of HIV-1 ZM109 envelope-driven cell-cell fusion – HeLa effector, CEM target cells, luciferase, cherry-pick, dose response (AID 652058); format: functional, cell-based;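 note: luciferase signal from HIV-1 Env mediated cell-cell fusion of effector and target cells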
[17] = blockers of HIV-1 envelope-mediated cell-cell fusion – cherry-pick, dose response (AID 652057); format: functional, cell-based
[18] = HIV-1 AD8 envelope cell-cell fusion blockers – cherry-pick, dose response (AID 652062); format: functional, cell-based;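 note: luciferase signal from cell-cell fusion driven by HIV-1 clade B AD8 Env; potency is for inhibitors of fusion seen as a drop in luminescence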

Cc1cc(NC(=O)c2sccc2C)n(-c2nc3ccccc3[nH]2)n1
IC50 (cells): 4.09 µM (active)
CC50 [1]: > 20 µM (active)
EC50 (Streptokinase A): > 150 µM (not active)
CC50 [2]: 12.8 µM (active)
CC50 [3]: > 40 µM (active)
EC50 (Streptococcus): 5.49 µM (active)
EC50 [4]: 3.9 µM (active)
CC50 [5]: 28.5 µM (active)

C=C(C)C1Cc2c(C)nn(-c3cccc4ccccc34)c2C1 (configuration not stated)
EC50 (Streptokinase A): 16.8 µM (active)
EC50 (Streptococcus): > 150 µM (not active)
EC50 [4]: 7.08 µM (active)
AC50 [6]: 6.69 µM (active)
CC50 [7]: > 40 µM (active)

CCC(=O)Nc1cc2c(cc1C(=O)c1ccccc1)OCCO2
AC50 (Cytochrome P450 2C9): inconclusive

Cc1ccsc1/C=N/Nc1nc2ccccc2s1
IC50 [8]: > 67.6 µM (inactive)

Cc1ccc(OCc2nnc(S)n2C2CCCCC2)cc1
IC50 [9]: 38.6 µM (not active)

CCN1C(=O)/C(=C\c2cn(-c3ccccc3)nc2-c2cccnc2)SC1=S
EC50 [10]: 17.9 µM (active)
IC50 [9]: > 50 µM (not active)
EC50 (BJ [11]): > 150 µM (inconclusive)
EC50 (BJ [12]): 7.41 µM (inconclusive)
EC50 (BJ [13]): > 150 µM (not active)

C[C@@H](NC(=O)/C(C#N)=C/c1ccc(O)c(O)c1)c1ccccc1
AC50 (Cytochrome P450 2C9): inconclusive
AC50 (Cytochrome P450 2C19; read-out: AC50): 39.8 µM (inconclusive)
IC50 (Large T antigen): 7.28 µM (active)

Nc1nc(S)nc(O)c1/N=N\c1c(Br)cc(S(N)(=O)=O)cc1Br
AC50 (Cytochrome P450 1A2): 3.16 µM (inconclusive)
AC50 (Cytochrome P450 2C9): inconclusive
AC50 (Cytochrome P450 2C19): inconclusive

COc1c(F)c(F)c(C(=O)Nc2c(C)cc(Br)cc2C)c(F)c1F
CC50 [7]: 35.6 µM (active)

Cn1c(Oc2ccccc2)c(C=O)c2ccccc21
AC50 (Cytochrome P450 2C9): inconclusive

COc1ccc(/C=C2\N=C(SC)N(c3ccccc3OC)C2=O)cc1
CC50 [7]: 37 µM (active)

COc1ccc(N2C(=O)N(Cc3ccc(C)cc3)c3ccccc3S2(=O)=O)cc1
IC50 [9]: 18.5 µM (not active)

COc1cccc(-c2cc(NC=O)c3ncc(-c4cccc(C(=O)NCCN(C)C)c4)n3c2)c1
AC50 [14]: 22.3 µM (active)
AC50 [15]: 3.43 µM (active)

CCn1c(SCC(=O)NC2CCCCC2)nnc1-c1cc2cccc(OC)c2o1
AC50 (Cytochrome P450 2C9): inconclusive
IC50 (Protein skinhead-1): > 100 µM (inactive)

C[C@H](CO)N1C[C@H](C)[C@H](CN(C)C(=O)NC2CCCC2)Oc2cc(C#Cc3ccc(F)cc3)ccc2S1(=O)=O
AC50 [16]: 13.2 µM (active)
AC50 [17]: 24.5 µM (active)
AC50 [18]: 24.9 µM (active)

CCN(CC)c1ccc(N/C=C2\C(=O)NC(=O)N(c3ccc(Cl)cc3)C2=O)cc1
CC50 [7]: > 40 µM (active)

COc1ccc(C(=O)C23CC4CC(C2)CC(C(=O)c2ccc(OC)cc2)(C4)C3)cc1
IC50 [9]: < 0.4 µM (not active)

Cc1cccn2c(=O)c3cc(C(=O)NC4CCCC4)c(=N)n(CCCN4CCOCC4)c3nc12
AC50 [14]: 21.5 µM (active)
AC50 [15]: 9.37 µM (active)
